According to patent US9593305B2, “Differentiation of pluripotent stem cells” (Janssen Biotech, Inc., priority 2008, dated 2017):

System: H1 human embryonic stem cells
Assay: Four-step differentiation before transplant, RT-PCR of pancreatic endoderm markers after step 4 (Example 18)
Type: cell-based
Settings: GDF-8 100 ng/ml + 2.5 μM compound in step 1, versus activin A and Wnt3a
Method: The differentiation process was started three days after the cells were seeded onto 6-well plates coated with reduced growth factor […]™. A four-step protocol was used for the in vitro differentiation of H1 human embryonic stem cells to cells expressing markers characteristic of the pancreatic endoderm lineage. Step 1 was conducted over three days to generate definitive endoderm cells. On the first day of step 1, differentiation was initiated by aspirating spent culture medium and adding an equal volume of RPMI-1640 basal medium (Invitrogen; Cat 22400) with 2% Albumin Bovine Fraction V, Fatty Acid Free (FAF BSA) (Proliant Biologicals; Cat #SKU 68700) and 8 ng/ml bFGF. In one treatment group, cells were exposed to 100 ng/ml activin A (PeproTech; Cat #120-14) with 20 ng/ml Wnt3a (R&D Systems; Cat #1324-WN/CF). In a second treatment group, cells were exposed to 100 ng/ml GDF-8 (R&D Systems; Cat #788-G8) with 2.5 μM Compound 40. In a third treatment group, cells were exposed to 100 ng/ml GDF-8 (R&D Systems; Cat #788-G8) with 2.5 μM Compound 202. […]
Step 4 of the differentiation protocol was conducted over three days. […] On the following day, cells in suspension culture were collected and counted. […]

## C=CCN1CC(=O)NCCCc2cncc(c2)-c2ncnc(n2)Nc2cccc(c2)C1 [Compound 40, 14-Prop-2-en-1-yl-3,5,7,14,17,23,27-heptaazatetracyclo[19.3.1.1˜2.6˜0.1˜8,12˜]heptacosa-1(25), 2(27), 3,5,8(26), 9,11,21,23-nonaen-16-one]
  PE markers CDX2, MAFA, NGN3, NKX6.1, PDX1 and Ptf1 alpha at the conclusion of step 4 (RT-PCR): expressed equivalent levels of PE markers
